Here are results for 43 compounds from PubChem BioAssay AID1053144 (Broad Institute, 2014).

The test system of the experiment is NPC TCF/LEF luciferase reporter, Wnt3a EC25, 24 h. Put plainly: TCF/LEF reporter activation in neural progenitors – cell-based, iPS-derived NPC, luciferase, Wnt3a, cherry-pick, dose response (AID 1053144).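 Also: Wnt3a stimulus is conditioned medium from Wnt3a-transfected mouse L cells at 5% in well.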

`Cc1ccc(-n2ncc3c(Nc4cccc(C(=O)O)c4)ncnc32)cc1`: the AC30 is 4.78 µM.
In the case of `O=C(N/N=C/C(Br)=C\c1ccccc1)c1cccs1` it was 13.7 µM.
Then `COc1ccc2[nH]c(=O)c(CNc3ccccc3C)cc2c1`, with 17.3 µM; and `O=Nc1c(-c2c(O)[nH]c3cc(Br)ccc23)[nH]c2ccccc12`, with 0.942 µM; and `O=C(c1cc(-c2cccc(O)c2)on1)N1CCCCCC1`, with 4.78 µM.
Then `Cc1ccc2nc(-c3ccc(NC(=O)CSCC(=O)O)cc3)sc2c1`, with 2.04 µM; and `COc1ccccc1C(=O)O/N=C(\N)c1ccc(Cl)cc1`, with 6.87 µM; and `Oc1ccc(Br)cc1-c1cc(-c2ccccc2F)[nH]n1`, with 12.9 µM.
For the compound `COc1ccc(C(=O)COC(=O)c2sccc2C)cc1OC`, the AC30 is 11.8 µM.
In the case of `Cc1ccc2nc(-c3ccc(NS(=O)(=O)c4ccc(F)cc4)cc3)sc2c1` it was 4.78 µM; in that of `O=C(Nc1ccc(NC(=O)C2CCCCC2)nc1)c1cccs1`, 10.1 µM; in that of `CCOC(=O)C1=C(COC(=O)c2cccc(N(C)C)c2)NC(=O)NC1C` (stereo not drawn), 11.8 µM.
In the case of `CCn1c(SCC(=O)c2ccc(Cl)cc2)nnc1C(C)C` it was 12.1 µM; in that of `Cc1ccccc1NC(=O)c1cc2ccccn2n1`, 4.78 µM; in that of `Cc1cccc(NC(=O)c2ccccn2)c1C`, 11.4 µM.
Then `O=C(c1cccs1)c1coc2ccc(O)cc12`, with 15 µM; and `O=C(O)c1ccc2c(c1)C(=O)N(c1ccc(/C=C/C(=O)c3ccccc3)cc1)C2=O`, with 18.7 µM.
Consider `O=c1oc2ccccc2cc1-c1nc2ccccc2o1`, for which the AC30 is 8.58 µM.
Then `Nc1c2ccccc2nc2ccccc12`, with 5.99 µM; and `COc1ccc(-c2ccc(SCC(=O)Nc3cc(C)on3)nn2)cc1OC`, with 15.1 µM.
For `Cc1cc(-c2nc3ccccc3c(=O)o2)ccc1[N+](=O)[O-]`, the AC30 was 16.2 µM.
In the case of `CCCC(=O)Nc1ccc(C(=O)COC(=O)C2CC2)cc1` it was 5.63 µM.
In the case of `Cc1[nH]c2ccccc2c1/C=N/Nc1nc2ccccc2[nH]1` it was 5.61 µM; in that of `Cc1ccsc1/C=N\NC(=O)c1ccc2c(c1)OCO2`, 4.78 µM; in that of `CCOc1cc(/C=N/NC(=O)N/N=C/c2ccc(O)c(OCC)c2)ccc1O`, 13.1 µM.
Regarding `Cc1cc(O)c(NC(=O)c2cccc([N+](=O)[O-])c2)cc1C`, the AC30 is 11.2 µM.
Then `CN1CCSc2ccc(C(=O)Nc3cc(F)ccc3F)cc21`, with 2.35 µM; and `COc1ccc2cc(-c3ccn[nH]3)ccc2c1`, with 4.78 µM.
Then `Fc1ccc2nc3[nH]c4ccccc4c3nc2c1`, with 8.76 µM; and `CNC(=O)c1ccsc1NC(=O)c1sc2ccccc2c1Cl`, with 12.4 µM.
Then `Cc1ccc(OCC(=O)Nc2ccccc2C(N)=O)cc1`, with 7.04 µM; and `C=CCNC(=O)c1ccc2c3n(nc2c1)-c1ccc(Cl)cc1CO3`, with 9.82 µM.
With `O=C(NCCCn1ccnc1)c1cc(-c2ccccc2)on1`, the AC30 is 7.41 µM.
In the case of `O=C(Nc1ncccc1O)c1ccc2c(c1)OCO2` it was 7.75 µM.
In the case of `O=C(NCCc1c[nH]c2ccccc12)c1cc2ccccc2oc1=O` it was 13.4 µM.
In the case of `O=c1oc(CCO)cc2ccc(C#Cc3ccsc3)cc12` it was 4.78 µM; in that of `O=C(NCCN1CCOCC1)c1cc(-c2ccccc2)on1`, 8.01 µM; in that of `COc1ccc(NC(=O)c2ccccc2NC(=O)C2CCCCC2C(=O)O)cc1` (stereo not drawn), 19.3 µM.
In the case of `COCCNC(=O)c1ccc2c3n(nc2c1)-c1ccc(C)cc1CO3`, the AC30 is 10.7 µM.
As for `Cc1ccc(C(=O)Nc2cccc(-c3ccc(N4CCOCC4)nn3)c2)cc1[N+](=O)[O-]`, the AC30 was 9.12 µM.
In the case of `CCC(=O)Nc1sc(C(=O)Nc2ccccc2)c(C)c1C(=O)OC` it was 9.81 µM; in that of `COCCNC(=O)c1cc2c(s1)-c1ccc(Cl)cc1SC2`, 11.2 µM.
On to `Oc1ccccc1-c1nnc(COc2ccc(Cl)cc2Cl)o1`, for which the AC30 is 10.5 µM.
